*1 amine or outer side, *2 acyl side, *3 side chain or, on linkers, in order; H or OH if unused. Where a SMILES comes first, the peptide text is derived from it. Bridges are numbered along the chain shown (N, C = ends). [ ]: non-standard residue; d: D form. The star is where a group is joined. C20 diacid = O=C(O)CCCCCCCCCCCCCCCCCCC(=O)*; γGlu = O=C(O)[C@H](CCC(=O)[*:2])N[*:1]; NMeI = CC[C@H](C)[C@H](NC)C(=O)O; Sar = CNCC(=O)O
Legend:
[1] = Assessment of physical stability (Thioflavin T fibrillation); format: physicochemical; parameters: key: FND = fibrillation not detected; FD = fibrillation detected; conditions: 1 mg/ml, 40° C., ThT; for Fibrillation pH 4.0 (Ac): 50 mM acetate buffer pH 4.0, 96 hours; for Fibrillation pH 7.0 (His): 50 mM histidine buffer pH 7.0, 96 hours; for Fibrillation pH 7.0 (Phos.): 50 mM phosphate buffer pH 7.0, 96 hours
Summary of the method: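 1 mg/ml peptide with 40 μM ThT in 50 mM phosphate pH 7.0, 50 mM histidine pH 7.0 or 50 mM acetate pH 4.0, in triplicate. Fluorescence read every 10 min after 300 s agitation over 96 h at 40 °C. Lag-time (h) is the intersection of linear fits to stable and growth phases.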

[2] = target: T1, human amylin receptor 3 (hAMYR3), hCTR2 co-expressed with hRAMP3 (Homo sapiens, UniProt O60896+P30988); assay: hAMYR3 cAMP assay (AlphaScreen) in COS7 cells; format: cell-based; conditions: cAMP induction, COS7 cells expressing hAMYR3; Table 1; read-out: hAMYR3 EC50
T1 construct: expressed in transfected cells
T1 sequence (P30988 25-474): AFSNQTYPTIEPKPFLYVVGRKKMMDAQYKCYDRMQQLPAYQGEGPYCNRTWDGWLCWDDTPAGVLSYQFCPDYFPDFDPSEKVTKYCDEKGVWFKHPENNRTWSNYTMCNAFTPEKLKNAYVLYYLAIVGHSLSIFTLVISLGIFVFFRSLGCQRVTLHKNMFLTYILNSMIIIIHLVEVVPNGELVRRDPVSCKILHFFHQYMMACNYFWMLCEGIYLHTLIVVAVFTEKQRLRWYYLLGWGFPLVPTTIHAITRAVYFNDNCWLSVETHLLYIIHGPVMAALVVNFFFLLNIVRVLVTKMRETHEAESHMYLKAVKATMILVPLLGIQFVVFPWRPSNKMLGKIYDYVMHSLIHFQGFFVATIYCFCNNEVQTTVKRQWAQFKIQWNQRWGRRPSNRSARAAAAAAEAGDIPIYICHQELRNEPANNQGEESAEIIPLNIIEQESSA
T1 sequence (O60896 24-148 partner): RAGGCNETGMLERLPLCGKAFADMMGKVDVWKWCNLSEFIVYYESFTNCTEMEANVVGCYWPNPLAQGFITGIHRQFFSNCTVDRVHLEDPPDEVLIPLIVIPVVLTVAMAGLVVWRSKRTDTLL
Summary of the method: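 Stable COS7 clone co-expressing hCTR2 and hRAMP3 was exposed to increasing peptide concentrations in Tyrode buffer (pH 7.4) with 100 µM IBMX and 0.1% casein for 15 min at 37 °C. Lysate cAMP was measured by AlphaScreen; EC50 came from 4-parameter logistic fitting.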

[3] = target: T2, human calcitonin receptor (hCTR2) (Homo sapiens, UniProt P30988); assay: hCTR2 cAMP assay (AlphaScreen) in COS7 cells; format: cell-based; conditions: cAMP induction, COS7 cells expressing hCTR2; Table 1; read-out: hCTR2 EC50
T2 construct: expressed in transfected cells
T2 sequence (P30988 25-474): T1 sequence (P30988 25-474)
Summary of the method: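 Stable hCTR2 clone in RAMP-naïve COS7 cells stimulated 15 min at 37 °C with increasing peptide concentrations in Tyrode buffer pH 7.4 containing IBMX and 0.1% casein. cAMP in lysates measured by AlphaScreen; EC50 from 4-parameter logistic fit.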

Row | Fibrillation pH 4.0 (Ac) [1] | Fibrillation pH 7.0 (His) [1] | Fibrillation pH 7.0 (Phos.) [1] | EC50 [2] | EC50 [3] | Compound
1 | FND | FD | FND | 0.33 nM | 0.19 nM | CC[C@H](C)[C@@H](C(=O)N[C@@H](CC(C)C)C(=O)N[C@@H](CO)C(=O)N[C@@H](CO)C(=O)N[C@H](C(=O)N[C@@H](CCC(=O)O)C(=O)N[C@H](C(=O)NCC(=O)N[C@@H](CO)C(=O)N[C@@H](CCC(=O)O)C(=O)N[C@H](C(=O)N1CCC[C@H]1C(N)=O)[C@@H](C)O)C(C)C)[C@@H](C)O)N(C)C(=O)[C@H](C)NC(=O)CN(C)C(=O)[C@H](Cc1ccccc1)NC(=O)[C@@H](NC(=O)[C@H](CO)NC(=O)[C@H](CCCNC(=N)N)NC(=O)[C@H](Cc1c[nH]cn1)NC(=O)[C@H](CC(C)C)NC(=O)[C@H](Cc1ccccc1)NC(=O)[C@H](Cc1c[nH]cn1)NC(=O)[C@H](C)NC(=O)[C@H](CC(C)C)NC(=O)[C@H](CCCNC(=N)N)NC(=O)[C@H](CCC(N)=O)NC(=O)[C@@H](NC(=O)[C@H](C)NC(=O)[C@@H]1CSSC[C@H](NC(=O)[C@H](CCCNC(=N)N)NC(=O)CC[C@H](NC(=O)CCCCCCCCCCCCCCCCCCC(=O)O)C(=O)O)C(=O)N[C@@H](CC(N)=O)C(=O)N[C@@H]([C@@H](C)O)C(=O)N[C@@H](C)C(=O)N[C@@H]([C@@H](C)O)C(=O)N1)[C@@H](C)O)C(C)C [Compound 20, [19CD]-isoGlu-R-C( )-NTAT-C( )-ATQRLAHFLHRSVF-Gly(Me)-A-Ile(Me)-LSSTEVGSETP-NH2] ({C20 diacid-γGlu}-RCNTATCATQRLAHFLHRSVF[Sar]A[NMeI]LSSTEVGSETP-NH2; disulfide 2-7)
2 | FND | FND | FND | 0.23 nM | 0.079 nM | CC[C@H](C)[C@@H](C(=O)N[C@@H](CC(C)C)C(=O)N[C@@H](CO)C(=O)N[C@@H](CO)C(=O)N[C@H](C(=O)N[C@@H](CCC(=O)O)C(=O)N[C@H](C(=O)NCC(=O)N[C@@H](CO)C(=O)N[C@@H](CCC(=O)O)C(=O)N[C@H](C(=O)N1CCC[C@H]1C(N)=O)[C@@H](C)O)C(C)C)[C@@H](C)O)N(C)C(=O)[C@H](C)NC(=O)CN(C)C(=O)[C@H](Cc1ccccc1)NC(=O)[C@H](CO)NC(=O)[C@H](CO)NC(=O)[C@H](CCCNC(=N)N)NC(=O)[C@H](Cc1c[nH]cn1)NC(=O)[C@H](CC(C)C)NC(=O)[C@H](Cc1ccccc1)NC(=O)[C@H](CC(=O)O)NC(=O)[C@H](C)NC(=O)[C@H](CC(C)C)NC(=O)[C@H](CCCNC(=N)N)NC(=O)[C@H](CCC(N)=O)NC(=O)[C@@H](NC(=O)[C@H](C)NC(=O)[C@@H]1CSSC[C@H](NC(=O)[C@H](CCCNC(=N)N)NC(=O)CC[C@H](NC(=O)CCCCCCCCCCCCCCCCCCC(=O)O)C(=O)O)C(=O)N[C@@H](CC(N)=O)C(=O)N[C@@H]([C@@H](C)O)C(=O)N[C@@H](C)C(=O)N[C@@H]([C@@H](C)O)C(=O)N1)[C@@H](C)O [Compound 1, [19CD]-isoGlu-R-C( )-NTAT-C( )-ATQRLADFLHRSSF-Gly(Me)-A-Ile(Me)-LSSTEVGSETP-NH2] ({C20 diacid-γGlu}-RCNTATCATQRLADFLHRSSF[Sar]A[NMeI]LSSTEVGSETP-NH2; disulfide 2-7)
